Molecular target: T1, KRAS G12C 1-169, his-tagged protein, GDP-loaded (Homo sapiens, UniProt P01116, G12C)
T1 construct: KRAS G12C 1-169, his-tagged protein, GDP-loaded; His tag
Test: Biochemical assay: covalent modification of KRAS G12C, analysed by mass spectrometry (RapidFire/TOF or Q-Exactive); also: time not given here
Assay type: binding
Conditions: Modification activity, modification percentage from MS peak intensities
Procedure, shortened: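 Covalent adduct formation was quantified by intact-protein mass spectrometry, either TOF or C4 LC-Q Exactive Plus, as percent modified versus unmodified protein after deconvolution. Compounds at 8 or 32 μM final were incubated with 0.5 or 2 μM GDP-bound KRAS G12C(1-169)-His in Hepes/NaCl/MgCl2 buffer before acid quench.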

Row | Structure (SMILES) | Binding %
1 | C=CC(=O)N1CC2(CCN(c3c(OC[C@@H]4CCCN4C)ncc(-c4c(C)ccc5[nH]ncc45)c3C#N)C2)C1 [Compound I-199, 3-(2-acryloyl-2,6-diazaspiro[3.4]octan-6-yl)-5-(5-methyl-1H-indazol-4-yl)-2-(((S)-1-methylpyrrolidin-2-yl)methoxy)isonicoti-nonitrile] | ++ (++ indicates binding activity from 50 to 85%)
2 | C=CC(=O)N1CC2(CCN(c3nc(C4CCN(C)CC4)nc(-c4c(C)ccc5[nH]ncc45)c3C#N)C2)C1 [Compound I-180, 4-(2-acryloyl-2,6-diazaspiro[3.4]octan-6-yl)-6-(5-methyl-1H-indazol-4-yl)-2-(1-methylpiperidin-4-yl)pyrimidine-5-carbonitrile] | ++ (++ indicates binding activity from 50 to 85%)
3 | C=CC(=O)N1CC2(CCN(c3nc(OCc4cnc(OC)nc4)nc(-c4c(C)ccc5[nH]ncc45)c3C#N)C2)C1 [Compound I-149, 4-(2-acryloyl-2,6-diazaspiro[3.4]octan-6-yl)-2-((2-methoxypyrimidin-5-yl)methoxy)-6-(5-methyl-1H-indazol-4-yl)pyrimidine-5-carbonitrile] | +++ (+++ indicates binding activity greater than 85%)
4 | C=CC(=O)N1CC2(CCN(c3nc(=O)n(Cc4ccccc4)c(-c4c(C)ccc5[nH]ncc45)c3C#N)C2)C1 [Compound I-178, 4-(2-acryloyl-2,6-diazaspiro[3.4]octan-6-yl)-1-benzyl-6-(5-methyl-1H-indazol-4-yl)-2-oxo-1,2-dihydropyrimidine-5-carbonitrile] | + (+ indicates binding activity greater than 0% and up to 50%)
5 | C=CC(=O)N1CC2(CCN(c3nc(OC[C@@H]4CCCN4C)nc(-c4cc(O)cc5ccccc45)c3C#N)C2)C1 [Compound I-92, (S)-4-(2-acryloyl-2,6-diazaspiro[3.4]octan-6-yl)-6-(3-hydroxynaphthalen-1-yl)-2-((1-methylpyrrolidin-2-yl)methoxy)pyrimidine-5-carbonitrile] | ++ (++ indicates binding activity from 50 to 85%)
6 | C=CC(=O)N1CC2(CCN(c3nc(OCc4cccnc4)nc(-c4c(C)ccc5[nH]ncc45)c3C#N)C2)C1 [Compound I-150, 4-(2-acryloyl-2,6-diazaspiro[3.4]octan-6-yl)-6-(5-methyl-1H-indazol-4-yl)-2-(pyridin-3-ylmethoxy)pyrimidine-5-carbonitrile] | ++ (++ indicates binding activity from 50 to 85%)
7 | C=CC(=O)N1CC2(CCN(c3nc(N4CC5CCN(C)CC5C4)nc(-c4c(C)ccc5[nH]ncc45)c3C#N)C2)C1 (stereo not shown) [Compound I-46, 4-(2-acryloyl-2,6-diazaspiro[3.4]octan-6-yl)-6-(5-methyl-1H-indazol-4-yl)-2-(5-methyloctahydro-2H-pyrrolo[3,4-c]pyridin-2-yl)pyrimidine-5-carbonitrile] | +++ (+++ indicates binding activity greater than 85%)
8 | C=CC(=O)N1CC2(CCN(c3nc(OC[C@H]4CCCN4C)nc(-c4c(C)ccc5[nH]ncc45)c3C#N)C2)C1 [Compound I-6, 4-(2-acryloyl-2,6-diazaspiro[3.4]octan-6-yl)-6-(5-methyl-1H-indazol-4-yl)-2-(((R)-1-methylpyrrolidin-2-yl)methoxy)pyrimidine-5-carbonitrile] | +++ (+++ indicates binding activity greater than 85%)
9 | C=CC(=O)N1CC2(CCN(c3ccnc(-c4c(C)ccc5[nH]ncc45)c3C#N)C2)C1 [Compound I-252, 4-(2-acryloyl-2,6-diazaspiro[3.4]octan-6-yl)-2-(5-methyl-1H-indazol-4-yl)nicotinonitrile] | + (+ indicates binding activity greater than 0% and up to 50%)
10 | C=CC(=O)N1CC2(CCN(c3nc(OCc4cccc(OC)c4)nc(-c4c(C)ccc5[nH]ncc45)c3C#N)C2)C1 [Compound I-151, 4-(2-acryloyl-2,6-diazaspiro[3.4]octan-6-yl)-2-((3-methoxybenzyl)oxy)-6-(5-methyl-1H-indazol-4-yl)pyrimidine-5-carbonitrile] | ++ (++ indicates binding activity from 50 to 85%)
11 | C=CC(=O)N1CC2(CCN(c3ncnc(N4CCC[C@@H]4C(N)=O)c3C#N)C2)C1 [Compound I-247, (R)-1-(6-(2-acryloyl-2,6-diazaspiro[3.4]octan-6-yl)-5-cyanopyrimidin-4-yl)pyrrolidine-2-carboxamide] | + (+ indicates binding activity greater than 0% and up to 50%)
12 | C=CC(=O)N1CC2(CCN(c3nc(OC[C@@H]4CCCN4C)nc(-c4c(C)ccc5[nH]ncc45)c3C#N)C2)C1 [Compound I-2, 4-(2-acryloyl-2,6-diazaspiro[3.4]octan-6-yl)-6-(5-methyl-1H-indazol-4-yl)-2-(((S)-1-methylpyrrolidin-2-yl)methoxy)pyrimidine-5-carbonitrile] | +++ (+++ indicates binding activity greater than 85%)
13 | CC#CC(=O)N1CC2(CCN(c3nc(OC[C@@H]4CCCN4C)nc(-c4c(C)ccc5[nH]ncc45)c3C#N)C2)C1 [Compound I-104, 4-(2-(but-2-ynoyl)-2,6-diazaspiro[3.4]octan-6-yl)-6-(5-methyl-1H-indazol-4-yl)-2-(((S)-1-methylpyrrolidin-2-yl)methoxy)pyrimidine-5-carbontrile] | + (+ indicates binding activity greater than 0% and up to 50%)
14 | C=CC(=O)N1CC2(CCN(c3cncc(-c4c(C)ccc5cnn(C)c45)c3C#N)C2)C1 [Compound I-264, 3-(2-acryloyl-2,6-diazaspiro[3.4]octan-6-yl)-5-(1,6-dimethyl-1H-indazol-7-yl)isonicotinonitrile] | ++ (++ indicates binding activity from 50 to 85%)
15 | C=CC(=O)N1CC2(CCN(c3nc(OC[C@@H]4CCCN4C)nc(-c4c(F)ccc5cnn(C6CC6)c45)c3C#N)C2)C1 [Compound I-124, 4-(2-acryloyl-2,6-diazaspiro[3.4]octan-6-yl)-6-(1-cyclopropyl-6-fluoro-1H-indazol-7-yl)-2-(((S)-1-methylpyrrolidin-2-yl)methoxy)pyrimidine-5-carbonitrile] | + (+ indicates binding activity greater than 0% and up to 50%)
16 | C=CC(=O)N1CC2(CCN(c3ncnc(-c4c(C)ccc5[nH]ncc45)c3C#N)CC2)C1C(C)C (stereo not shown) [Compound I-281, 4-(2-acryloyl-1-isopropyl-2,7-diazaspiro[3.5]nonan-7-yl)-6-(5-methyl-1H-indazol-4-yl)pyrimidine-5-carbonitrile] | + (+ indicates binding activity greater than 0% and up to 50%)
17 | C=CC(=O)N1CC2(CCN(c3ncnc(-c4c(C)ccc5[nH]ncc45)c3CC(F)(F)F)C2)C1 [Compound I-259, 1-(6-(6-(5-methyl-1H-indazol-4-yl)-5-(2,2,2-trifluoroethyl)pyrimi-din-4-yl)-2,6-diazaspiro[3.4]octan-2-yl)prop-2-en-1-one] | + (+ indicates binding activity greater than 0% and up to 50%)
18 | C=CC(=O)N1CC2(CC(=O)N(c3ncnc(-c4c(C)ccc5[nH]ncc45)c3C#N)C2)C1 [Compound I-273, 4-(2-acryloyl-7-oxo-2,6-diazaspiro[3.4]octan-6-yl)-6-(5-methyl-1H-indazol-4-yl)pyrimidine-5-carbonitrile] | + (+ indicates binding activity greater than 0% and up to 50%)
19 | CC#CC(=O)N1CC2(CCN(c3cncc(-c4c(C)ccc5[nH]nc(N)c45)c3C#N)C2)C1 [Compound I-278, 3-(3-amino-5-methyl-1H-indazol-4-yl)-5-(2-(but-2-ynoyl)-2,6-diazaspiro[3.4]octan-6-yl)isonicotinonitrile] | + (+ indicates binding activity greater than 0% and up to 50%)
20 | C=CC(=O)N1CC2(CCN(c3ncnc(-c4c(O)cccc4F)c3C#N)C2)C1 [Compound I-228, 4-(2-acryloyl-2,6-diazaspiro[3.4]octan-6-yl)-6-(2-fluoro-6-hydroxyphenyl)pyri-midine-5-carbonitrile] | + (+ indicates binding activity greater than 0% and up to 50%)
21 | C=CC(=O)N1CC2(CCN(c3nc(N4CCOCC4)nc(-c4c(F)ccc5cnn(C6CC6)c45)c3C#N)C2)C1 [Compound I-120, 4-(2-acryloyl-2,6-diazaspiro[3.4]octan-6-yl)-6-(1-cyclopropyl-6-fluoro-1H-indazol-7-yl)-2-morpholinopyrimidine-5-carbonitrile] | +++ (+++ indicates binding activity greater than 85%)
22 | C=CC(=O)N1CC2(CCN(c3ncc(C#N)c(-c4c(C)ccc5[nH]ncc45)n3)C2)C1 [Compound I-145, 2-(2-acryloyl-2,6-diazaspiro[3.4]octan-6-yl)-4-(5-methyl-1H-indazol-4-yl)pyrimidine-5-carbonitrile] | + (+ indicates binding activity greater than 0% and up to 50%)
23 | C=CC(=O)N1CC2(CCN(c3nc(OC[C@@H]4CCCN4C)nc(-n4ccnc4)c3C#N)C2)C1 [Compound I-31, (S)-4-(2-acryloyl-2,6-diazaspiro[3.4]octan-6-yl)-6-(1H-imidazol-1-yl)-2-((1-methylpyrrolidin-2-yl)methoxy)pyrimidine-5-carbonitrile] | + (+ indicates binding activity greater than 0% and up to 50%)
24 | C=CC(=O)N1CC2(CCN(c3nc(N4CCC5(CCN(C)C5)C4)nc(-c4c(C)ccc5[nH]ncc45)c3C#N)C2)C1 (stereo not shown) [Compound I-77, 4-(2-acryloyl-2,6-diazaspiro[3.4]octan-6-yl)-6-(5-methyl-1H-indazol-4-yl)-2-(7-methyl-2,7-diazaspiro[4.4]nonan-2-yl)pyrimidine-5-carbonitrile] | +++ (+++ indicates binding activity greater than 85%)
25 | C=CC(=O)N1CC2(CCN(c3nc(OCCCN(C)C)nc(-c4c(C)ccc5[nH]ncc45)c3C#N)C2)C1 [Compound I-5, 4-(2-acryloyl-2,6-diazaspiro[3.4]octan-6-yl)-2-(3-(dimethylamino)pro-poxy)-6-(5-methyl-1H-indazol-4-yl)pyrimidine-5-carbonitrile] | +++ (+++ indicates binding activity greater than 85%)

— US12134620B2 (ARAXES PHARMA LLC, priority 2018, dated 2024)
